Molecules are shown by their SMILES. Where a SMILES comes first, the peptide text is derived from it. [ ]: non-standard residue; d: D form. The star is where a group is joined. NH(CH2)3NH(1-anthraquinonyl) = O=C1c2ccccc2C(=O)c2c(NCCCN*)cccc21; Nle = CCCC[C@H](N)C(=O)O; Nva = CCC[C@H](N)C(=O)O

What is called melting point is the temperature, or range, at which the solid turns liquid. In turn, `CC(C)C[C@H](NC(=O)CNC(=O)[C@H](C)NC(=O)[C@@H](C)N)C(=O)N[C@@H](C)C(=O)N[C@@H](CC(C)C)C(=O)N1CCC[C@H]1C(=O)NCCCNc1cccc2c1C(=O)c1ccccc1C2=O.O=C(O)C(F)(F)F` displayed a melting point of 192 °C.

`CC(C)C[C@H](NC(=O)[C@H](C)N)C(=O)NCC(=O)N[C@@H](CC(C)C)C(=O)N1CCC[C@@H]1C(=O)NCCCNc1cccc2c1C(=O)c1ccccc1C2=O.O=C(O)C(F)(F)F` registered a melting point of 168 °C.

Turning to `CC(C)C[C@H](NC(=O)[C@H](C)N)C(=O)N1CCC[C@H]1C(=O)NCCCNc1cccc2c1C(=O)c1ccccc1C2=O.O=C(O)C(F)(F)F`, the melting point lay within 170 to 174 °C.

In turn, `CCC[C@H](NC(=O)CNC(=O)[C@H](CC(C)C)NC(=O)[C@H](C)N)C(=O)N1CCC[C@H]1C(=O)NCCCNc1cccc2c1C(=O)c1ccccc1C2=O.O=C(O)C(F)(F)F` (H-ALG[Nva]P-{NH(CH2)3NH(1-anthraquinonyl)}) registered a melting point of 176 to 178 °C.

Consider `CCC[C@H](NC(=O)[C@H](C)NC(=O)[C@H](C)N)C(=O)NCC(=O)N[C@@H](CC(C)C)C(=O)N1CCC[C@H]1C(=O)NCCCNc1cccc2c1C(=O)c1ccccc1C2=O.O=C(O)C(F)(F)F` (H-AA[Nva]GLP-{NH(CH2)3NH(1-anthraquinonyl)}), for which the melting point amounted to 197 °C.

In turn, `CCC[C@H](N)C(=O)NCC(=O)N[C@@H](CC(C)C)C(=O)N1CCC[C@H]1C(=O)NCCCNc1cccc2c1C(=O)c1ccccc1C2=O.O=C(O)C(F)(F)F` (H-[Nva]GLP-{NH(CH2)3NH(1-anthraquinonyl)}) registered a melting point of 210 °C.

`CC(C)C[C@H](N)C(=O)NCC(=O)N1CCC[C@@H]1C(=O)NCCCNc1cccc2c1C(=O)c1ccccc1C2=O.O=C(O)C(F)(F)F` came in with a melting point of 174 to 178 °C.

`CSC[C@H](NC(=O)[C@H](C)NC(=O)[C@H](C)NC(=O)[C@@H](C)N)C(=O)NCC(=O)N[C@@H](CC(C)C)C(=O)N1CCC[C@H]1C(=O)NCCCNc1cccc2c1C(=O)c1ccccc1C2=O.O=C(O)C(F)(F)F` registered a melting point of 191 °C.

As to `CCCC[C@H](NC(=O)[C@H](C)NC(=O)[C@H](C)NC(=O)[C@@H](C)N)C(=O)NCC(=O)N[C@@H](CC(C)C)C(=O)N1CCC[C@H]1C(=O)NCCCNc1cccc2c1C(=O)c1ccccc1C2=O.O=C(O)C(F)(F)F`, the melting point is 192 °C.

Compound `NCC(=O)N[C@@H](Cc1ccccc1)C(=O)N1CCC[C@@H]1C(=O)NCCCNc1cccc2c1C(=O)c1ccccc1C2=O.O=C(O)C(F)(F)F` yielded a melting point of 128 to 130 °C.

For `CCC[C@H](NC(=O)[C@@H](N)Cc1ccc(O)cc1)C(=O)NCC(=O)N[C@@H](CC(C)C)C(=O)N1CCC[C@H]1C(=O)NCCCNc1cccc2c1C(=O)c1ccccc1C2=O.O=C(O)C(F)(F)F` (H-Y[Nva]GLP-{NH(CH2)3NH(1-anthraquinonyl)}), the melting point amounted to 174 °C.

Consider `CCC[C@H](NC(=O)CNC(=O)[C@@H](N)CC(C)C)C(=O)N1CCC[C@H]1C(=O)NCCCNc1cccc2c1C(=O)c1ccccc1C2=O.O=C(O)C(F)(F)F` (H-LG[Nva]P-{NH(CH2)3NH(1-anthraquinonyl)}), for which the melting point fell in the range of 172 to 176 °C.

As to `CCCC[C@H](NC(=O)[C@H](C)N)C(=O)NCC(=O)N[C@@H](CC(C)C)C(=O)N1CCC[C@H]1C(=O)NCCCNc1cccc2c1C(=O)c1ccccc1C2=O.O=C(O)C(F)(F)F` (H-A[Nle]GLP-{NH(CH2)3NH(1-anthraquinonyl)}), the melting point turned out to be 185 °C.

In turn, `CC(C)C[C@H](NC(=O)[C@H](Cc1ccc(O)cc1)NC(=O)[C@H](C)N)C(=O)NCC(=O)N[C@@H](CC(C)C)C(=O)N1CCC[C@H]1C(=O)NCCCNc1cccc2c1C(=O)c1ccccc1C2=O.O=C(O)C(F)(F)F` (H-AYLGLP-{NH(CH2)3NH(1-anthraquinonyl)}) showed a melting point of 182 °C.

For `CC[C@H](C)[C@H](NC(=O)[C@@H](N)Cc1ccccc1)C(=O)NCC(=O)N[C@@H](Cc1ccccc1)C(=O)N1CCC[C@@H]1C(=O)NCCCNc1cccc2c1C(=O)c1ccccc1C2=O.O=C(O)C(F)(F)F`, the melting point was 130 to 134 °C.

Turning to `NCC(=O)N1CCC[C@H]1C(=O)NCCCNc1cccc2c1C(=O)c1ccccc1C2=O.O=C(O)C(F)(F)F`, the melting point is 160 to 166 °C.

`CCC[C@H](N)C(=O)N[C@@H](CC(C)C)C(=O)NCC(=O)N[C@@H](CC(C)C)C(=O)N1CCC[C@H]1C(=O)NCCCNc1cccc2c1C(=O)c1ccccc1C2=O.O=C(O)C(F)(F)F` (H-[Nva]LGLP-{NH(CH2)3NH(1-anthraquinonyl)}): the melting point came to 189 °C.

`CCC[C@H](NC(=O)CNC(=O)[C@H](CC(C)C)NC(=O)[C@H](C)NC(=O)[C@H](C)NC(=O)[C@@H](C)N)C(=O)N1CCC[C@H]1C(=O)NCCCNc1cccc2c1C(=O)c1ccccc1C2=O.O=C(O)C(F)(F)F` registered a melting point of 192 to 196 °C.

`CC(C)C[C@H](NC(=O)[C@H](C)NC(=O)[C@H](C)NC(=O)[C@H](N)CCCCN)C(=O)NCC(=O)N[C@@H](CC(C)C)C(=O)N1CCC[C@H]1C(=O)NCCCNc1cccc2c1C(=O)c1ccccc1C2=O.O=C(O)C(F)(F)F.O=C(O)C(F)(F)F` displayed a melting point of 196 °C.

The compound `CC(C)C[C@H](NC(=O)CNC(=O)[C@H](C)NC(=O)[C@@H](C)N)C(=O)N[C@@H](Cc1ccccc1)C(=O)N[C@@H](CC(C)C)C(=O)N1CCC[C@H]1C(=O)NCCCNc1cccc2c1C(=O)c1ccccc1C2=O.O=C(O)C(F)(F)F` showed a melting point of 190 to 194 °C.

Turning to `CSC[C@H](NC(=O)[C@H](C)NC(=O)[C@H](C)N)C(=O)NCC(=O)N[C@@H](CC(C)C)C(=O)N1CCC[C@H]1C(=O)NCCCNc1cccc2c1C(=O)c1ccccc1C2=O.O=C(O)C(F)(F)F` (H-AAC(Me)GLP-{NH(CH2)3NH(1-anthraquinonyl)}), the melting point is 162 °C.

Turning to `CCC[C@H](NC(=O)[C@H](C)N)C(=O)NCC(=O)N[C@@H](CC(C)C)C(=O)N1CCC[C@H]1C(=O)NCCCNc1cccc2c1C(=O)c1ccccc1C2=O.O=C(O)C(F)(F)F` (H-A[Nva]GLP-{NH(CH2)3NH(1-anthraquinonyl)}), the melting point was found to be 198 °C.

`CC(C)C[C@H](NC(=O)[C@@H](N)Cc1ccccc1)C(=O)N1CCC[C@H]1C(=O)NCCCNc1cccc2c1C(=O)c1ccccc1C2=O.O=C(O)C(F)(F)F` had a melting point of 184 to 188 °C.

In turn, `CC(C)C[C@H](NC(=O)[C@H](Cc1ccc(O)cc1)NC(=O)[C@H](C)NC(=O)[C@@H](C)N)C(=O)NCC(=O)N[C@@H](CC(C)C)C(=O)N1CCC[C@H]1C(=O)NCCCNc1cccc2c1C(=O)c1ccccc1C2=O.O=C(O)C(F)(F)F` gave a melting point of 190 to 194 °C.

`CC(C)C[C@H](NC(=O)CN)C(=O)N[C@@H](C)C(=O)N[C@@H](CC(C)C)C(=O)N1CCC[C@H]1C(=O)NCCCNc1cccc2c1C(=O)c1ccccc1C2=O.O=C(O)C(F)(F)F` (H-GLALP-{NH(CH2)3NH(1-anthraquinonyl)}) showed a melting point of 192 to 194 °C.

Regarding `CC(C)C[C@H](NC(=O)[C@@H](N)Cc1ccccc1)C(=O)NCC(=O)N1CCC[C@@H]1C(=O)NCCCNc1cccc2c1C(=O)c1ccccc1C2=O.O=C(O)C(F)(F)F`, the melting point is 170 °C.

Take `CCC[C@H](NC(=O)[C@H](Cc1ccc(O)cc1)NC(=O)[C@H](C)NC(=O)[C@@H](C)N)C(=O)NCC(=O)N[C@@H](CC(C)C)C(=O)N1CCC[C@H]1C(=O)NCCCNc1cccc2c1C(=O)c1ccccc1C2=O.O=C(O)C(F)(F)F`: the melting point stood at 190 °C.

In turn, `CCCC[C@H](NC(=O)[C@H](C)NC(=O)[C@H](C)N)C(=O)NCC(=O)N[C@@H](CC(C)C)C(=O)N1CCC[C@H]1C(=O)NCCCNc1cccc2c1C(=O)c1ccccc1C2=O.O=C(O)C(F)(F)F` (H-AA[Nle]GLP-{NH(CH2)3NH(1-anthraquinonyl)}) showed a melting point of 176 °C.

`CCC[C@H](NC(=O)[C@H](Cc1ccc(O)cc1)NC(=O)[C@H](C)N)C(=O)NCC(=O)N[C@@H](CC(C)C)C(=O)N1CCC[C@H]1C(=O)NCCCNc1cccc2c1C(=O)c1ccccc1C2=O.O=C(O)C(F)(F)F` (H-AY[Nva]GLP-{NH(CH2)3NH(1-anthraquinonyl)}): the melting point was found to be 182 °C.

In the case of `CSC[C@H](NC(=O)[C@H](Cc1ccc(O)cc1)NC(=O)[C@H](C)N)C(=O)NCC(=O)N[C@@H](CC(C)C)C(=O)N1CCC[C@H]1C(=O)NCCCNc1cccc2c1C(=O)c1ccccc1C2=O.O=C(O)C(F)(F)F` (H-AYC(Me)GLP-{NH(CH2)3NH(1-anthraquinonyl)}), the melting point fell in the range of 166 to 170 °C.

The compound `CC(C)C[C@H](NC(=O)[C@H](C)NC(=O)[C@@H](N)CC(C)C)C(=O)N1CCC[C@H]1C(=O)NCCCNc1cccc2c1C(=O)c1ccccc1C2=O.O=C(O)C(F)(F)F` (H-LALP-{NH(CH2)3NH(1-anthraquinonyl)}) yielded a melting point of 178 to 180 °C.

Consider `N[C@@H](Cc1ccccc1)C(=O)N1CCC[C@@H]1C(=O)NCCCNc1cccc2c1C(=O)c1ccccc1C2=O.O=C(O)C(F)(F)F`, for which the melting point lay in the range of 118 to 120 °C.

Turning to `CC(C)C[C@H](NC(=O)CNC(=O)[C@H](C)N)C(=O)N[C@@H](C)C(=O)N[C@@H](CC(C)C)C(=O)N1CCC[C@H]1C(=O)NCCCNc1cccc2c1C(=O)c1ccccc1C2=O.O=C(O)C(F)(F)F` (H-AGLALP-{NH(CH2)3NH(1-anthraquinonyl)}), the melting point was 185 °C.

Regarding `NCCCNc1cccc2c1C(=O)c1ccccc1C2=O`, the melting point came out at 196 °C.

For `CC(C)C[C@H](NC(=O)[C@H](Cc1ccccc1)NC(=O)[C@@H](N)CC(C)C)C(=O)N1CCC[C@H]1C(=O)NCCCNc1cccc2c1C(=O)c1ccccc1C2=O.O=C(O)C(F)(F)F` (H-LFLP-{NH(CH2)3NH(1-anthraquinonyl)}), the melting point fell in the range of 184 to 186 °C.

In turn, `CCC[C@H](N)C(=O)N1CCC[C@H]1C(=O)NCCCNc1cccc2c1C(=O)c1ccccc1C2=O.O=C(O)C(F)(F)F` returned a melting point of 190 to 194 °C.

`CCC[C@H](NC(=O)[C@H](C)NC(=O)[C@@H](C)N)C(=O)N[C@@H](CC(C)C)C(=O)NCC(=O)N[C@@H](CC(C)C)C(=O)N1CCC[C@H]1C(=O)NCCCNc1cccc2c1C(=O)c1ccccc1C2=O.O=C(O)C(F)(F)F` showed a melting point of 174 to 178 °C.

On to `NCC(=O)N1CCC[C@@H]1C(=O)NCCCNc1cccc2c1C(=O)c1ccccc1C2=O.O=C(O)C(F)(F)F`, for which the melting point was in the range of 156 to 162 °C.

Take `CC(C)C[C@H](NC(=O)[C@H](Cc1ccccc1)NC(=O)CN)C(=O)NCC(=O)N1CCC[C@@H]1C(=O)NCCCNc1cccc2c1C(=O)c1ccccc1C2=O.O=C(O)C(F)(F)F`: the melting point fell in the range of 154 to 156 °C.

(Values after US20040248765A1, “Tumour targeting prodrugs activated by metallo matrixproteinases” (priority 2001, published 2004).)
